Assay results reported in patent US8119998B2, “Methods and systems for in situ physicochemical property testing” (Pion, Inc., priority 2008, dated 2012).
In brackets after ≈: the same amount, converted by molar mass.

Assay: Miniaturized rotating disk dissolution and solubility of pressed pellet, biexponential fit
Format: physicochemical
Settings: pressed pellet 3.9 mm, five replicate profiles, 180 selected points, FIG. 12
Experimental: This example is based on the dissolution and solubility characteristics of the model drug carbamazepine, with data collected on a prototype instrument, utilizing a miniaturized rotating disk of pressed compound held as a pellet in a small stainless steel die. The average diameter of the pellets of material was measured to be 3.9 mm, corresponding to a nominal area of 0.12 cm^2, and the minimal amount of compound needed to make such pellets was about 5 mg, although more may be used. In this example, the solution volume was 15 mL, larger than the preferred volume of 3 mL. Over 1100 concentration measurements were acquired, in five replicate dissolution profiles. […] The powder “burst” would be associated with a high surface area, but would be limited to a small quantity of material: [formula] […] 2 with respect to time, evaluated at t=to, in the units of μg/min (with PABL in cm/s units), is DR^max=(Cpowder·Apowder+[…]·60 [3] The factor of 60 accounts for the conversion of ABL permeability into cm/min units. Intrinsic dissolution rate (IDR) is calculated as IDR=DR^max/Aeff, where Aeff is the effective area of the solid phase in contact with bulk solution. The effective surface area is defined as Aeff=δApowder+(1-δ)[…], where δ=[…]). The IDR is the maximum flux of material entering the solution phase through the interface solid-liquid interface (often evaluated at time near zero). […]

For NC(=O)N1c2ccccc2C=Cc2ccccc21 [carbamazepine], the “IDR (intrinsic dissolution rate)” value (nominal area 0.12 cm^2, 15 mL) was 25±1 μg/cm^2·min and the solubility (thermodynamic from solid, 15 mL, read-out: S (solubility)) was 225 ± 6 µg/mL (≈ 952 µM).
